In one assay the target is Human Thrombocytes. Put plainly: Fibrinogen binding to human thrombocytes (fibrinogen binding test). As for the experimental part: 1. Fibrinogen Binding to Human Thrombocytes The blood obtained by puncturing an antecubital vein is anticoagulated with trisodium citrate (final concentration: 13 mM) and centrifuged for 10 minutes at 170× g. The supernatant platelet-rich plasma is poured onto a Sepharose 2B column (Pharmacia) and eluted with a solution of 90 mM common salt, 14 mM trisodium citrate, 5 mM glucose and 50 mM tris(hydroxymethyl)aminomethane, adjusted to pH 7.4. The gel-filtered platelets (GFP) appearing before the plasma proteins are used for the binding experiments. 50 μl of a 60 mM calcium chloride solution, 50 μl of a 0.6 mM adenosine diphosphate solution, 100 μl of substance solution or solvent and 50 μl of fibrinogen solution (containing 3 μg of ^125 fibrinogen) are added to 750 μl of GFP and incubated for 20 minutes at ambient temperature. The non-specific binding is determined in the presence of 3 mg/ml of cold fibrinogen. 900 μl of the incubated material are carefully pipetted onto 250 μl of silicon oil (AP 38: AR 20, 1:2 v/v, Wacker Chemie) in Eppendorf tubes and centrifuged for 2 minutes at 10,000× g. The aqueous supernatant and some of the oil are drawn off, the tips of the tubes are cut off together with the platelet pellet and the quantity of bound fibrinogen is determined in a gamma counter. The concentration of substance which brings about a 50% inhibition in fibrinogen binding is determined from a series of concentrations and is given as the IC50 value. | *^125 I fibrogen was replaced by […] |e.

Assay [1] has as its system platelet aggregation (platelet-rich plasma). Put plainly: Antithrombotic activity: inhibition of collagen-induced platelet aggregation in platelet-rich plasma (Born and Cross). The assay is classed as cell-based, human (healthy volunteers). As to conditions: 50% change in optical density, human platelet-rich plasma, 10 min preincubation. As for the experimental part: 2. Antithrombotic Activity Method The thrombocyte aggregation is measured using the Born and Cross method (J. Physiol. 170:397 (1964)) in platelet-rich plasma taken from healthy volunteers. To inhibit coagulation the blood is mixed with 3.14% sodium citrate in a ratio by volume of 1:10. Collagen-induced aggregation The pattern of the decrease in optical density of the platelet suspension is photometrically measured and recorded after the addition of aggregation-triggering substance. The rate of aggregation is concluded from the angle of inclination of the density curve. The point on the curve where there is maximum light transmittance is used to calculate the optical density. The amount of collagen used is as small as possible but sufficient to produce an irreversible reaction curve. Standard commercial collagen produced by Hormonchemie of Munich is used. Before the addition of the collagen the plasma is incubated for 10 minutes with the substance at […]. From the measurements obtained an EC50 is determined graphically, indicating a 50% change in the optical density in terms of the inhibition of aggregation.

Setting [2] is: 125I fibrinogen, 50% inhibition of fibrinogen binding, gel-filtered human platelets, ADP, 20 min ambient temperature, read-out: Fibrinogen binding test IC50.
[3] abbreviates: *: 125I fibrinogen replaced by 3H-(3S,5S)-5-[(amidino-biphenylyl)-oxymethyl]-carboxymethyl-pyrrolidinone ligand, read-out: Fibrinogen binding test IC50 (values marked *).

SMILES strings stand for the structures. pEC50, pIC50: −log10 of the molar value. Structures can show the parent of a compound that is named as a salt. Where two headings read alike, the source gives them in different places.

In general, pIC50 refers to −log10 of the IC50, conventionally taken in molar units. Usually pEC50 stands for the negative decadic logarithm of the EC50, by convention in mol/L. Take `N=C(N)c1ccc(-c2nc3cc(NC(=O)CCC(=O)O)ccc3[nH]2)cc1` [1(1), 2-(4-amidino-phenyl)-5(6)-[(2-carboxy-ethyl)-carbonyl-amino]-benzimidazole]: the pIC50 on Human Thrombocytes (setting [2]) was 6.22. This compound showed a negative-log EC50 (pEC50) in assay [1] of 5.18. Regarding `N=C(N)c1ccc(-c2nc3cc(C(=O)NCCC(=O)O)ccc3[nH]2)cc1` [1(2), 2-(4-amidino-phenyl)-5(6)-[(2-carboxy-ethyl)-aminocarbonyl]-benzimidazole-hydrochloride], the pIC50 on Human Thrombocytes (setting [3]) was 6.14. The same compound showed a negative-log EC50 (pEC50) in assay [1] of 5.48. `COC(=O)CCNC(=O)c1cc2nc(-c3ccc(C(=N)N)cc3)n(C)c2cc1N(C)C(=O)OCC(C)C` [3(130), 2-(4-amidino-phenyl)-6-(N-isobutyloxycarbonyl-N-methyl-amino)-5-[(2-methoxycarbonyl-ethyl)-aminocarbonyl]-1-methyl-benzimidazole]: the negative logarithm of the IC50 (pIC50) on Human Thrombocytes (setting [2]) is 4.85. This compound also gave a pEC50 in assay [1] of 6.80. With `N=C(N)c1ccc(-c2nc3cc(C(=O)NCCC(=O)OCC4CCCCC4)ccc3n2CCCCc2ccccc2)cc1` [13(6), 2-(4-amidino-phenyl)-5-[(2-cyclohexylmethyloxy-carbonyl-ethyl)-aminocarbonyl]-1-(4-phenyl-butyl)-benzimidazole dihydrochloride], the pIC50 at Human Thrombocytes (setting [3]) was 6.89. In addition, the pEC50 in assay [1] is 6.01. Regarding `CCCCCCCCCCCCCCn1c(-c2ccc(CN)cc2)nc2cc(C(=O)NCCC(=O)O)ccc21` [17(4), 2-(4-aminomethyl-phenyl)-5-[(2-carboxy-ethyl)-aminocarbonyl]-1-n-tetradecyl-benzimidazole-dihydrobromide], the pIC50 on Human Thrombocytes (setting [3]) is 5.72. The compound further gave a pEC50 in assay [1] of less than 4.00. For `COC(=O)CCNC(=O)c1ccc2c(c1)nc(-c1ccc(C(=N)N)cc1)n2CCC(c1ccccc1)c1ccccc1` [3(126), 2-(4-amidino-phenyl)-1-(3,3-diphenyl-propyl)-5-[(2-methoxycarbonyl-ethyl)-aminocarbonyl]-benzimidazole], the pIC50 on Human Thrombocytes (setting [2]) is 5.66. In assay [1], this compound had a pEC50 of 5.00. Consider `N=C(N)c1ccc(-c2nc3cc(C(=O)NCCC(=O)O)ccc3n2CCCN2CC[S+]([O-])CC2)cc1` [1(74), 2-(4-amidino-phenyl)-5-[(2-carboxy-ethyl)-aminocarbonyl]-1-[3-(S-oxido-thiomorpholino)-propyl]-benzimidazole], for which the pIC50 on Human Thrombocytes (setting [3]) was 6.92. Also, the negative-log EC50 (pEC50) in assay [1] was 6.51. The like results for `Cn1c(-c2ccc(C(=N)N)cc2)nc2c(=O)n(CCCCC(=O)O)c(=O)n(C)c21` [1(160), 8-(4-amidino-phenyl)-1-(4-carboxy-butyl)-3,9-dimethyl-xanthine] were, in that order, 8.12 and 7.15. For `COC(=O)CCNC(=O)c1ccc2c(c1)nc(-c1ccc(C(=N)N)cc1)n2CCCN1CCS(=O)(=O)CC1` [5(6), 2-(4-amidino-phenyl)-1-[3-(S,S-dioxido-thiomorpholino)-propyl]-5-[(2-methoxycarbonyl-ethyl)-aminocarbonyl]-benzimidazole-hydrochloride], the pIC50 at Human Thrombocytes (setting [3]) is 5.26. Moreover, the negative-log EC50 (pEC50) in assay [1] is 4.74. As for `N=C(N)c1ccc(-c2nc3cc(C(=O)NCCC(=O)O)ccc3n2CCCCc2ccccc2)cc1` [17(7), 2-(4-amidino-phenyl)-5-[(2-carboxy-ethyl)-aminocarbonyl]-1-(4-phenyl-butyl)-benzimidazole-dihydrobromide], the pIC50 on Human Thrombocytes (setting [3]) is 8.27. The same compound had a pEC50 in assay [1] of 6.54. For `COc1ccc(CCn2c(-c3ccc(C(=N)N)cc3)nc3cc(C(=O)NCCC(=O)OC(C)C)ccc32)cc1OC` [Example 13, 2-(4-Amidino-phenyl)-1-[2-(3,4-dimethoxy-phenyl)-ethyl]-5-[(2-isopropyloxycarbonyl-ethyl)-aminocarbonyl]-benzimidazole-dihydrochloride], in that order: 5.77 and 5.24. The like results for `N=C(N)c1ccc(-c2nc3cc(C(=O)NCCC(=O)O)ccc3n2CCc2cc(Br)c(N)c(Br)c2)cc1` [17(8), 2-(4-amidino-phenyl)-1-[2-(4-amino-3,5-dibromo-phenyl)-ethyl]-5-[(2-carboxy-ethyl)-aminocarbonyl]-benzimidazole-dihydrobromide] were, in that order, 7.33 and 6.46.

On to `COC(=O)CCNC(=O)c1ccc2c(c1)nc(-c1ccc(C(=N)N)cc1)n2CCCC(=O)O` [3(121), 2-(4-amidino-phenyl)-1-(3-carboxy-propyl)-5-[(2-methoxycarbonyl-ethyl)-aminocarbonyl]-benzimidazole], for which the pIC50 at Human Thrombocytes (setting [3]) was 4.82. The negative logarithm of the EC50 (pEC50) in assay [1] is 4.89. For `N=C(N)c1ccc(-c2nc3cc(C(=O)NCCC(=O)OC4CCCCC4)ccc3n2CCCCc2ccccc2)cc1` [13(3), 2-(4-amidino-phenyl)-5-[(2-cyclohexyloxycarbonyl-ethyl)-aminocarbonyl]-1-(4-phenyl-butyl)-benzimidazole dihydrochloride], in that order: 5.85 and 5.37.

For `COc1ccc(CCn2c(-c3ccc(CN)cc3)nc3cc(C(=O)NCCC(=O)O)ccc32)cc1OC` [17(5), 2-(4-aminomethyl-phenyl)-5-[(2-carboxy-ethyl)-aminocarbonyl]-1-[2-(3,4-dimethoxy-phenyl)-ethyl]-benzimidazole-dihydrobromide], the negative-log IC50 (pIC50) at Human Thrombocytes (setting [3]) is 6.43. The compound also had a negative-log EC50 (pEC50) in assay [1] of 5.67. For `Cn1c(-c2ccc(C(=N)N)cc2)nc2cc(C(=O)NCCC(=O)O)cnc21` [17(13), 2-(4-amidino-phenyl)-6-[(2-carboxy-ethyl)-aminocarbonyl]-3-methyl-imidazo[4,5-b]pyridine-dihydrobromide], in that order: 7.70 and 7.40. As for `COC(=O)CCNC(=O)c1cc2nc(-c3ccc(C(=N)N)cc3)n(C)c2cc1N(C)CC(=O)OC` [3(124), 2-(4-amidino-phenyl)-5-[(2-methoxycarbonyl-ethyl)-aminocarbonyl]-6-(N-methoxycarbonylmethyl-methylamino)-1-methyl-benzimidazole-hydrochloride], on Human Thrombocytes (setting [3]), the pIC50 was 4.77. Further, the pEC50 in assay [1] is 5.55. For the compound `N=C(N)c1ccc(-c2nc3cc(C(=O)NCCC(=O)O)ccc3n2Cc2ccccc2)cc1` [1(62), 2-(4-amidino-phenyl)-1-benzyl-5-[(2-carboxy-ethyl)-aminocarbonyl]-benzimidazole-hydrochloride], on Human Thrombocytes (setting [3]), the pIC50 is 7.42.

As for `CNc1cc2c(cc1C(=O)NCCC(=O)OC)nc(-c1ccc(C(=N)N)cc1)n2C` [3(123), 2-(4-amidino-phenyl)-5-[(2-methoxycarbonyl-ethyl)-aminocarbonyl]-1-methyl-6-methylamino-benzimidazole-hydrochloride-hydrogen acetate], the pIC50 on Human Thrombocytes (setting [3]) was 4.60. In assay [1], this compound gave a negative logarithm of the EC50 (pEC50) of 4.92.

On to `N=C(N)c1ccc(-c2nc3cc(C(=O)NCCC(=O)O)ccc3n2CCCN)cc1` [1(76), 2-(4-amidino-phenyl)-1-(3-amino-propyl)-5-[(2-carboxy-ethyl)-aminocarbonyl]-benzimidazole-diacetate], for which the negative-log EC50 (pEC50) in assay [1] is 5.94. Same read-out and setting: to `COC(=O)COc1ccc2[nH]c(COc3ccc(C(=N)N)cc3)nc2c1` [Example 3, 2-[(4-Amidino-phenyl)-oxymethyl]-5(6)-methoxycarbonyl-methoxy-benzimidazole-hydrochloride] belongs 5.92.
